Data as given in ChEMBL document CHEMBL1909046, “DrugMatrix in vitro pharmacology data”.

Experiments:
[1] = DRUGMATRIX: Calcium Channel Type L, Phenylalkylamine radioligand binding (ligand: [3H] (-)-Desmethoxyverapamil (D-888)); type: cell membranes, Rattus norvegicus, Wistar, Brain, Membrane; details: Not Active = under 50% inhibition at 10 µM
Cytochrome P450 2C19 = Cytochrome P450 2C19 (Homo sapiens, UniProt P33261); note: in other assays of this panel Not Active means under 50% inhibition at 10 µM
Chain of Cytochrome P450 2C19 (P33261 whole entry): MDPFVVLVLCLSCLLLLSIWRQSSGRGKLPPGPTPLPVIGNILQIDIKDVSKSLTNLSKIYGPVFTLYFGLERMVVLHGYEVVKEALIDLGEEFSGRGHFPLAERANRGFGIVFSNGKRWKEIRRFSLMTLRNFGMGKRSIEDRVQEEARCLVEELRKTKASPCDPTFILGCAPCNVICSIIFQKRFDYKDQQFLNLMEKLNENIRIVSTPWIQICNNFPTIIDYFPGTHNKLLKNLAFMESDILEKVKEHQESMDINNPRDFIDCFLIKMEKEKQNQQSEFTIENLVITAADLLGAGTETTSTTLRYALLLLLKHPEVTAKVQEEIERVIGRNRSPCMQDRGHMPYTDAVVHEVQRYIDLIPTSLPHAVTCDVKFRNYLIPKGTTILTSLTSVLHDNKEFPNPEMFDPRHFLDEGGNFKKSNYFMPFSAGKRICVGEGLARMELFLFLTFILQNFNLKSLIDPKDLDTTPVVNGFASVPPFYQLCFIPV

Glucocorticoid receptor = biological target: T1, Glucocorticoid receptor (Homo sapiens, UniProt P04150); test: biochemical; note: in other assays of this panel Not Active means under 50% inhibition at 10 µM
T1 sequence (P04150 whole entry): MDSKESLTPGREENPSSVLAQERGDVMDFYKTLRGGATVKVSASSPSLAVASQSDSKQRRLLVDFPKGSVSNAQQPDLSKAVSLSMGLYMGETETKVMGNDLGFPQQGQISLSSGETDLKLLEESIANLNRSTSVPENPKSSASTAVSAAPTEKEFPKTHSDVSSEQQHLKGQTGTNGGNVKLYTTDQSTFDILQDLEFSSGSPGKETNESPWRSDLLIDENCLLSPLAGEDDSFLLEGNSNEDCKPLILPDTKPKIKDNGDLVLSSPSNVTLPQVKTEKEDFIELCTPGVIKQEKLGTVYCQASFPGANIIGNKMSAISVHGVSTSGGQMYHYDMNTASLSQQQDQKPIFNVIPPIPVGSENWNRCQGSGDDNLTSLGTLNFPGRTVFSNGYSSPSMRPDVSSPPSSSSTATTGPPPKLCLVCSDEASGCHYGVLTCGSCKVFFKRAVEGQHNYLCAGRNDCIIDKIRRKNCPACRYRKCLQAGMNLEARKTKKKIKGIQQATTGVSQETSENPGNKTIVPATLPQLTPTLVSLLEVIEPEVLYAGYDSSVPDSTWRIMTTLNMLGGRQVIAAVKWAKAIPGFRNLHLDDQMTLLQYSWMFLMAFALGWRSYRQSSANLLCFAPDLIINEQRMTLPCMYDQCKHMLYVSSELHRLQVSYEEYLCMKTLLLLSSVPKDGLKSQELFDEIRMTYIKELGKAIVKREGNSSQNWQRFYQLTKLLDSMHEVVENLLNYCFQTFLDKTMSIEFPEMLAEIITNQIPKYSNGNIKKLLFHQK

Androgen receptor = biological target: T2, Androgen receptor (Rattus norvegicus, UniProt P15207); note: in other assays of this panel Not Active means under 50% inhibition at 10 µM
T2 sequence (P15207 whole entry): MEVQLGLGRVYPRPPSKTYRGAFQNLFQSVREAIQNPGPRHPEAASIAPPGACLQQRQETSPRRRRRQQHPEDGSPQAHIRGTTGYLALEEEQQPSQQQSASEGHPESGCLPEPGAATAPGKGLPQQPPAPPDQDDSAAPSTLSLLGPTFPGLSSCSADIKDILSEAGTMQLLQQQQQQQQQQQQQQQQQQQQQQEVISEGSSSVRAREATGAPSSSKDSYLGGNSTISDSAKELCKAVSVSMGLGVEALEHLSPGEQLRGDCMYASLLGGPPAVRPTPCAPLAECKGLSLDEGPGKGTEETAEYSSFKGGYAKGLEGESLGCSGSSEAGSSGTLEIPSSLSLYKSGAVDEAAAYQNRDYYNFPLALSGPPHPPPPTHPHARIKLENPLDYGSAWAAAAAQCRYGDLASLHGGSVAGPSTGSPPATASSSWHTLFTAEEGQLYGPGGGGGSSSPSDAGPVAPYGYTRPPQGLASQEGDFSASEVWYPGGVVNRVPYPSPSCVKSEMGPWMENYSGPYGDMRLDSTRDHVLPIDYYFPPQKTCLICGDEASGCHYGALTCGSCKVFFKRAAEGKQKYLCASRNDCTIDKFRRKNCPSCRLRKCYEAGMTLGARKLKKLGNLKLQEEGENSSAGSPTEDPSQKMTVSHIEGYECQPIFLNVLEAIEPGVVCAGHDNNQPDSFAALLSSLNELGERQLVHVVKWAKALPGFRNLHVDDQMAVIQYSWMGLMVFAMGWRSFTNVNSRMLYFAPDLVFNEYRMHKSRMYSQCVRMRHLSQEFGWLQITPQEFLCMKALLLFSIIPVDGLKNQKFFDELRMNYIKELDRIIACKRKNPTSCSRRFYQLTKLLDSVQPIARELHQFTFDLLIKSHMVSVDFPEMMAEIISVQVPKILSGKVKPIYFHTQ

Cytochrome P450 1A2 = biological target: T3, Cytochrome P450 1A2 (Homo sapiens, UniProt P05177); note: in other assays of this panel Not Active means under 50% inhibition at 10 µM
T3 sequence (P05177 whole entry): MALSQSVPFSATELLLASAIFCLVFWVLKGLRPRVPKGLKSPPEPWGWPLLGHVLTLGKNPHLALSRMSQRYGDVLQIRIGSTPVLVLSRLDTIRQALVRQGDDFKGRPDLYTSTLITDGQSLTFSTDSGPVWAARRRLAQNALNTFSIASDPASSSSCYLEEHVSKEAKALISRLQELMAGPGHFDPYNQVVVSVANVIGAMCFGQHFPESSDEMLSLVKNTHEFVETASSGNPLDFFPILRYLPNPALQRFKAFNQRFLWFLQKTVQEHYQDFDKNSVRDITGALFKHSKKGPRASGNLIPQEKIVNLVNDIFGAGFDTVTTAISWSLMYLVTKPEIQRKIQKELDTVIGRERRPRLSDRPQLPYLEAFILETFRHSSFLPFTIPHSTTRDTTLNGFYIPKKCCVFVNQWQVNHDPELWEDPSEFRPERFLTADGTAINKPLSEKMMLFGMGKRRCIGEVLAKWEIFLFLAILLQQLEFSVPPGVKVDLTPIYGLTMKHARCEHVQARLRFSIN

Cytochrome P450 2D6 = Cytochrome P450 2D6 (Homo sapiens, UniProt P10635); note: in other assays of this panel Not Active means under 50% inhibition at 10 µM
Chain of Cytochrome P450 2D6 (P10635 whole entry): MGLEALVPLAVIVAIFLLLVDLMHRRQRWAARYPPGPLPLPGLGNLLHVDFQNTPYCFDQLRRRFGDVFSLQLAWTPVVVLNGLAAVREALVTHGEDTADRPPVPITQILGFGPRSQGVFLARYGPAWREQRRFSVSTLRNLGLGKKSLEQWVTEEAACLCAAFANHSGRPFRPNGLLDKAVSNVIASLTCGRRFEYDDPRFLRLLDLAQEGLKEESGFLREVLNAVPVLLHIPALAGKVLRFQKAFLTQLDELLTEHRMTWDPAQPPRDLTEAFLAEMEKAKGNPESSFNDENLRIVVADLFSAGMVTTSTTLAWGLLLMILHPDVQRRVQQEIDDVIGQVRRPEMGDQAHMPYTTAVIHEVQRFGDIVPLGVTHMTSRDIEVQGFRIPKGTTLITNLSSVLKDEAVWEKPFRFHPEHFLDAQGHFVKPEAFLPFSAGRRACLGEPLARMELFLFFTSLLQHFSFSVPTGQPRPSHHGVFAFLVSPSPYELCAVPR

Cytochrome P450 2C9 = Cytochrome P450 2C9 (Homo sapiens, UniProt P11712); note: in other assays of this panel Not Active means under 50% inhibition at 10 µM
Chain of Cytochrome P450 2C9 (P11712 whole entry): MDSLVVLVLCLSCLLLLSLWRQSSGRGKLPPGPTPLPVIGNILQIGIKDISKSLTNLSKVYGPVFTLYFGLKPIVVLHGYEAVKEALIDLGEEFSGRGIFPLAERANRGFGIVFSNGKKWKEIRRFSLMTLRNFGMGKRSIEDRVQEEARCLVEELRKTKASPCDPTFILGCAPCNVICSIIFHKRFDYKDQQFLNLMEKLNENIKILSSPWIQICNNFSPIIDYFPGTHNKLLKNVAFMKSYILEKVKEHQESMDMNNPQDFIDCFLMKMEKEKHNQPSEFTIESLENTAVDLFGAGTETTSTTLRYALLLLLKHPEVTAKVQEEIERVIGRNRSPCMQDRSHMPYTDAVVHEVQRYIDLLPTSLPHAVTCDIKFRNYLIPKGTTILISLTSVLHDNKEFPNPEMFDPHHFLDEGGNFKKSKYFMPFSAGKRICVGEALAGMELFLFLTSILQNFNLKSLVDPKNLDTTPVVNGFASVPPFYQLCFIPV

Compound	IC50 [1]	Ki [1]	also measured
CC(C)(C)NC(=O)[C@@H]1C[C@@H]2CCCC[C@@H]2CN1C[C@@H](O)[C@H](Cc1ccccc1)NC(=O)[C@H](CC(N)=O)NC(=O)c1ccc2ccccc2n1	–	–	IC50 ([1]; read-out: IC50): 6840 nM; Ki ([1]; read-out: Ki): 6650 nM
CC(=O)[C@@]1(O)CC[C@H]2[C@@H]3C[C@H](C)C4=CC(=O)CC[C@]4(C)[C@H]3CC[C@@]21C	Not Active	Not Active	IC50 (Cytochrome P450 2C19): 2000 nM; IC50 (Glucocorticoid receptor): 19 nM; Ki (Glucocorticoid receptor): 8.6 nM
N[C@@H](Cc1ccc(N(CCCl)CCCl)cc1)C(=O)O	Not Active	Not Active	–
OCCN(CCO)c1nc(N2CCCCC2)c2nc(N(CCO)CCO)nc(N3CCCCC3)c2n1 [DIPYRIDAMOLE]	Not Active	Not Active	IC50 (Androgen receptor): Not Active
Cc1oncc1C(=O)Nc1ccc(C(F)(F)F)cc1 [LEFLUNOMIDE]	Not Active	Not Active	IC50 (Cytochrome P450 1A2): 500 nM
c1ccc([C@H]2CN3CCSC3=N2)cc1 [LEVAMISOLE]	Not Active	Not Active	–
N[C@@H](Cc1ccc(O)c(O)c1)C(=O)O [LEVODOPA]	Not Active	Not Active	–
O=NN(CCCl)C(=O)NC1CCCCC1 [LOMUSTINE]	Not Active	Not Active	–
CCOC(=O)N1CCC(=C2c3ccc(Cl)cc3CCc3cccnc32)CC1 [LORATADINE]	Not Active	Not Active	–
Cn1ccnc1S [METHIMAZOLE]	Not Active	Not Active	–
CC[C@@H](CO)NC(=O)[C@@H]1C=C2c3cccc4[nH]cc(c34)C[C@H]2N(C)C1 [METHYLERGONOVINE]	Not Active	Not Active	IC50 (Androgen receptor): Not Active
COc1nc(C)nc(Cl)c1NC1=NCCN1 [MOXONIDINE]	Not Active	Not Active	–
COc1c(C)c2c(c(O)c1C/C=C(\C)CCC(=O)O)C(=O)OC2 [MYCOPHENOLIC ACID]	Not Active	Not Active	–
O=c1ncn2nc(Sc3ccc(F)cc3F)ccc2c1-c1c(Cl)cccc1Cl [NEFLAMAPIMOD]	Not Active	Not Active	IC50 (Androgen receptor): Not Active
CN1CCN(CCCN2c3ccccc3Sc3ccc(Cl)cc32)CC1 [PROCHLORPERAZINE]	–	–	IC50 (Cytochrome P450 1A2): 2000 nM
CO[C@H]1/C=C/O[C@@]2(C)Oc3c(C)c(O)c4c(O)c(c(/C=N/N5CCN(C)CC5)c(O)c4c3C2=O)NC(=O)/C(C)=C\C=C\[C@H](C)[C@H](O)[C@@H](C)[C@@H](O)[C@@H](C)[C@H](OC(C)=O)[C@@H]1C [RIFAMPIN]	Not Active	Not Active	–
Nc1nc2ccc(OC(F)(F)F)cc2s1 [RILUZOLE]	Not Active	Not Active	–

Compound	IC50 [1]	Ki [1]	also measured
Cc1nc2n(c(=O)c1CCN1CCC(c3noc4cc(F)ccc34)CC1)CCCC2 [RISPERIDONE]	–	–	IC50 (Cytochrome P450 2D6): 5270 nM
C=CCC1(C(C)CCC)C(=O)NC(=O)NC1=O (configuration not stated) [SECOBARBITAL]	Not Active	Not Active	–
Cc1noc(NS(=O)(=O)c2ccc(N)cc2)c1C [SULFISOXAZOLE]	Not Active	Not Active	–
CSc1ccc(/C=C2/C(C)=C(CC(=O)O)c3cc(F)ccc32)cc1 [SULINDAC SULFIDE]	Not Active	Not Active	IC50 (Cytochrome P450 1A2): 2000 nM; IC50 (Androgen receptor): Not Active
Nc1c2c(nc3ccccc13)CCCC2 [TACRINE]	Not Active	Not Active	IC50 (Cytochrome P450 2D6): 300 nM
CC(C)N1CCN(c2ccc(OCC3COC(Cn4cncn4)(c4ccc(Cl)cc4Cl)O3)cc2)CC1 (configuration not stated) [TERCONAZOLE]	–	–	IC50 ([1]; read-out: IC50): 3460 nM; Ki ([1]; read-out: Ki): 3360 nM
Nc1nc2nc[nH]c2c(=S)[nH]1 [THIOGUANINE]	Not Active	Not Active	IC50 (Androgen receptor): Not Active
Cc1cccc(N(C)C(=S)Oc2ccc3ccccc3c2)c1 [TOLNAFTATE]	Not Active	Not Active	IC50 (Cytochrome P450 2C19): 3000 nM
NC[C@H]1CC[C@H](C(=O)O)CC1 [TRANEXAMIC ACID]	Not Active	Not Active	–
CC1(C)O[C@@H]2C[C@H]3[C@@H]4CCC5=CC(=O)C=C[C@]5(C)[C@@]4(F)[C@@H](O)C[C@]3(C)[C@]2(C(=O)CO)O1 [TRIAMCINOLONE ACETONIDE]	Not Active	Not Active	IC50 (Glucocorticoid receptor): 4.41 nM; Ki (Glucocorticoid receptor): 2.01 nM
NS(=O)(=O)c1cc2c(cc1Cl)NC(C(Cl)Cl)NS2(=O)=O (configuration not stated) [TRICHLORMETHIAZIDE]	Not Active	Not Active	–
Cc1c(C)c2c(c(C)c1O)CCC(C)(COc1ccc(CC3SC(=O)NC3=O)cc1)O2 (configuration not stated) [TROGLITAZONE]	Not Active	Not Active	IC50 (Cytochrome P450 2C9): 4000 nM; IC50 (Androgen receptor): Not Active
N[C@@H]1[C@H]2CN(c3nc4c(cc3F)c(=O)c(C(=O)O)cn4-c3ccc(F)cc3F)C[C@@H]12 [TROVAFLOXACIN]	Not Active	Not Active	IC50 (Androgen receptor): Not Active
N#CC(C#N)=Cc1ccc(O)c(O)c1 [TYRPHOSTIN 23]	Not Active	Not Active	IC50 (Androgen receptor): Not Active
CC[C@]1(O)C[C@H]2CN(CCc3c([nH]c4ccccc34)[C@@](C(=O)OC)(c3cc4c(cc3OC)N(C=O)[C@H]3[C@@](O)(C(=O)OC)[C@H](OC(C)=O)[C@]5(CC)C=CCN6CC[C@]43[C@@H]65)C2)C1 [VINCRISTINE]	Not Active	Not Active	IC50 (Androgen receptor): Not Active
CCCOc1ccccc1-c1nc2nn[nH]c2c(=O)[nH]1 [ZAPRINAST]	Not Active	Not Active	–
SODIUM NITROPRUSSIDE	Not Active	Not Active	IC50 (Androgen receptor): Not Active; Ki (Androgen receptor): Not Active
